In paper PMC11859184, “Synthesis and Evaluation of ^68Ga- and ^177Lu-Labeled [diF-Pro^14]Bombesin(6−14) Analogs for Detection and Radioligand Therapy of Gastrin-Releasing Peptide Receptor-Expressing Cancer” (Pharmaceuticals, 2025):
Like-named read-outs stand apart in the source and are kept apart here.

Assay: Ex vivo biodistribution of 177Lu-labeled ligands in PC-3 tumor-bearing mice
Details: mouse; for tissue to tissue ratio at 1 h / tissue to tissue ratio at 4 h / tissue to tissue ratio at 24 h / tissue to tissue ratio at 72 h / tissue to tissue ratio at 120 h: male, NOD.Cg-Rag1^tm1Mom Il2rg^tm1Wjl/SzJ (NRG), iv, total radioactivity; for tissue to tissue ratio at 1 h / tissue uptake at 1 h: 1 h pi; for tissue to tissue ratio at 4 h / tissue uptake at 4 h: 4 h pi; for tissue to tissue ratio at 24 h / tissue uptake at 24 h: 24 h pi; for tissue to tissue ratio at 120 h / tissue uptake at 120 h: 120 h pi; for tissue uptake at 1 h / tissue uptake at 4 h / tissue uptake at 24 h / tissue uptake at 72 h / tissue uptake at 120 h: intravenous
Method: SPECT/CT imaging was conducted using an MI Labs (Houten, The Netherlands) U-SPECT-II/CT scanner with a custom-made ultra-high sensitivity big mouse collimator (2 mm pinhole size) following published procedure. The experiments were obtained in accordance with the same protocol established in the PET/CT imaging and ex vivo biodistributions section. The mice were used for SPECT/CT imaging and ex vivo biodistributions studies once the tumors reached a diameter of 5–8 mm. PC-3 tumor-bearing mice were sedated (2.5% isoflurane in O2) and injected with 31.4–36.9 MBq of the ^177Lu-labeled ligand through a lateral caudal tail vein. The mouse was imaged at 1, 4, 24, 72, and 120 h pi. At each time point, a 5 min CT scan was performed with 615 μA and 60 kV parameters for localization and attenuation, followed by two 30 min static SPECT scans in list mode with an energy window centered around 208 keV. The U-SPECT II software was used to reconstruct data, and the images were decay corrected to the time of injection with PMOD v 3.402 (PMOD Technologies GmbH, Fallanden, Switzerland).
For ex vivo biodistribution studies, the mice were injected with ~3–5 MBq of the ^177Lu-labeled ligand (n = 5). At 1, 4, 24, 72, and 120 h post-injection, the mice were anesthetized with 2% isoflurane, euthanized by CO2 inhalation, and the tissues/organs of interest were […] for radioactivity counting. The blocking study was performed at 1 h pi via co-injection of the ^177Lu-labeled ligand with 100 μg of [D-Phe^6,Leu-NHEt^13,des-Met^14]Bombesin(6–14).

[1] = tumor/blood, n = 5, read-out: Tumor/blood uptake ratio
[2] = tumor/kidney, n = 5, read-out: Tumor/kidney uptake ratio
[3] = tumor/muscle, n = 5, read-out: Tumor/muscle uptake ratio
[4] = tumor/pancreas, n = 5, read-out: Tumor/pancreas uptake ratio
[5] = PC-3 tumor, n = 5, read-out: PC-3 tumor uptake
[6] = adrenal glands, n = 5, read-out: Adrenal glands uptake
[7] = blood, n = 5, read-out: Blood uptake
[8] = bone, n = 5, read-out: Bone uptake
[9] = brain, n = 5, read-out: Brain uptake
[10] = fat, n = 5, read-out: Fat uptake
[11] = heart, n = 5, read-out: Heart uptake

Which tissue to tissue ratio at 1 h (tumor/blood, blocked (100 µg GRPR antagonist co-injected), read-out: Tumor/blood uptake ratio) does the source give for `CC(C)C[C@@H](CN1CC(F)(F)C[C@H]1C(N)=O)NC(=O)[C@H](Cc1c[nH]cn1)NC(=O)CN(C)C(=O)[C@@H](NC(=O)[C@H](C)NC(=O)[C@H](Cc1c[nH]c2ccccc12)NC(=O)[C@H](CCC(N)=O)NC(=O)[C@@H](Cc1ccccc1)NC(=O)CN1CCC(NC(=O)CN2CCN(CC(=O)O)CCN(CC(=O)O)CCN(CC(=O)O)CC2)CC1)C(C)C` [[^177Lu]Lu-LW02080, metal not drawn] here?
Its tissue to tissue ratio at 1 h is 3.06 ± 0.99.

What about the tissue to tissue ratio at 1 h [1] of the same compound?
Its tissue to tissue ratio at 1 h is 16.9 ± 5.57.

And the tissue to tissue ratio at 4 h [1]?
The tissue to tissue ratio at 4 h was 136 ± 14.7.

And the tissue to tissue ratio at 24 h [1]?
The tissue to tissue ratio at 24 h was 365 ± 251.

What about the tissue to tissue ratio at 72 h (tumor/blood, 72 h pi, n = 5, read-out: Tumor/blood uptake ratio) of the same compound?
The tissue to tissue ratio at 72 h was 1300 ± 703.

And the tissue to tissue ratio at 120 h [1]?
Its tissue to tissue ratio at 120 h is 529 ± 380.

And the tissue to tissue ratio at 1 h (tumor/kidney, blocked (100 µg GRPR antagonist co-injected), read-out: Tumor/kidney uptake ratio)?
The tissue to tissue ratio at 1 h was 0.52 ± 0.08.

And the tissue to tissue ratio at 1 h [2]?
The tissue to tissue ratio at 1 h was 2.17 ± 0.49.

And the tissue to tissue ratio at 4 h [2]?
The tissue to tissue ratio at 4 h was 1.61 ± 0.3.

And the tissue to tissue ratio at 24 h [2]?
The tissue to tissue ratio at 24 h was 1.34 ± 0.38.

What about the tissue to tissue ratio at 72 h (tumor/kidney, 72 h pi, n = 5, read-out: Tumor/kidney uptake ratio) of the same compound?
Its tissue to tissue ratio at 72 h is 2.17 ± 0.33.

What about the tissue to tissue ratio at 120 h [2] of the same compound?
Its tissue to tissue ratio at 120 h is 2.77 ± 0.65.

And the tissue to tissue ratio at 1 h (tumor/muscle, blocked (100 µg GRPR antagonist co-injected), read-out: Tumor/muscle uptake ratio)?
The tissue to tissue ratio at 1 h was 14.6 ± 2.5.

What about the tissue to tissue ratio at 1 h [3] of the same compound?
Its tissue to tissue ratio at 1 h is 90 ± 17.3.

What about the tissue to tissue ratio at 4 h [3] of the same compound?
Its tissue to tissue ratio at 4 h is 275 ± 35.

And the tissue to tissue ratio at 24 h [3]?
Its tissue to tissue ratio at 24 h is 149 ± 50.5.

What about the tissue to tissue ratio at 72 h (tumor/muscle, 72 h pi, n = 5, read-out: Tumor/muscle uptake ratio) of the same compound?
The tissue to tissue ratio at 72 h was 356 ± 110.

What about the tissue to tissue ratio at 120 h [3] of the same compound?
Its tissue to tissue ratio at 120 h is 214 ± 77.9.

What about the tissue to tissue ratio at 1 h (tumor/pancreas, blocked (100 µg GRPR antagonist co-injected), read-out: Tumor/pancreas uptake ratio) of the same compound?
The tissue to tissue ratio at 1 h was 6.53 ± 0.76.

And the tissue to tissue ratio at 1 h [4]?
The tissue to tissue ratio at 1 h was 14.8 ± 2.39.

What about the tissue to tissue ratio at 4 h [4] of the same compound?
Its tissue to tissue ratio at 4 h is 48.1 ± 11.3.

And the tissue to tissue ratio at 24 h [4]?
The tissue to tissue ratio at 24 h was 26.5 ± 4.82.

And the tissue to tissue ratio at 72 h (tumor/pancreas, 72 h pi, n = 5, read-out: Tumor/pancreas uptake ratio)?
The tissue to tissue ratio at 72 h was 46.8 ± 13.9.

What about the tissue to tissue ratio at 120 h [4] of the same compound?
The tissue to tissue ratio at 120 h was 51.5 ± 13.9.

And the tissue uptake at 1 h (PC-3 tumor, 100 ug, blocked (100 µg GRPR antagonist co-injected), read-out: PC-3 tumor uptake)?
The tissue uptake at 1 h was 2.02 ± 0.44 %ID/g.

And the tissue uptake at 1 h [5]?
Its tissue uptake at 1 h is 5.67 ± 1.02 %ID/g.

And the tissue uptake at 4 h [5]?
Its tissue uptake at 4 h is 2.96 ± 0.37 %ID/g.

What about the tissue uptake at 24 h [5] of the same compound?
Its tissue uptake at 24 h is 1.12 ± 0.2 %ID/g.

What about the tissue uptake at 72 h (PC-3 tumor, 72 h pi, n = 5, read-out: PC-3 tumor uptake) of the same compound?
The tissue uptake at 72 h was 0.55 ± 0.15 %ID/g.

What about the tissue uptake at 120 h [5] of the same compound?
Its tissue uptake at 120 h is 0.32 ± 0.06 %ID/g.

What about the tissue uptake at 72 h (PC-3 tumor, after 72 h pi, read-out: tumor uptake) of the same compound?
The tissue uptake at 72 h was less than 1 %ID/g.

And the tissue uptake at 1 h (adrenal glands, 100 ug, blocked (100 µg GRPR antagonist co-injected), read-out: Adrenal glands uptake)?
The tissue uptake at 1 h was 0.23 ± 0.06 %ID/g.

And the tissue uptake at 1 h [6]?
Its tissue uptake at 1 h is 0.18 ± 0.05 %ID/g.

And the tissue uptake at 4 h [6]?
Its tissue uptake at 4 h is 0.17 ± 0.09 %ID/g.

What about the tissue uptake at 24 h [6] of the same compound?
The tissue uptake at 24 h was 0.12 ± 0.05 %ID/g.

What about the tissue uptake at 72 h (adrenal glands, 72 h pi, n = 5, read-out: Adrenal glands uptake) of the same compound?
Its tissue uptake at 72 h is 0.02 ± 0.01 %ID/g.

What about the tissue uptake at 120 h [6] of the same compound?
The tissue uptake at 120 h was 0.03 ± 0.02 %ID/g.

And the tissue uptake at 1 h (blood, 100 ug, blocked (100 µg GRPR antagonist co-injected), read-out: Blood uptake)?
The tissue uptake at 1 h was 0.74 ± 0.18 %ID/g.

What about the tissue uptake at 1 h [7] of the same compound?
Its tissue uptake at 1 h is 0.37 ± 0.14 %ID/g.

What about the tissue uptake at 4 h [7] of the same compound?
The tissue uptake at 4 h was 0.02 %ID/g.

What about the tissue uptake at 24 h [7] of the same compound?
Its tissue uptake at 24 h is 0.01 ± 0.01 %ID/g.

And the tissue uptake at 1 h (bone, 100 ug, blocked (100 µg GRPR antagonist co-injected), read-out: Bone uptake)?
Its tissue uptake at 1 h is 0.07 ± 0.04 %ID/g.

What about the tissue uptake at 1 h [8] of the same compound?
Its tissue uptake at 1 h is 0.06 ± 0.01 %ID/g.

What about the tissue uptake at 4 h [8] of the same compound?
Its tissue uptake at 4 h is 0.01 %ID/g.

What about the tissue uptake at 24 h [8] of the same compound?
Its tissue uptake at 24 h is 0.02 ± 0.01 %ID/g.

And the tissue uptake at 72 h (bone, 72 h pi, n = 5, read-out: Bone uptake)?
The tissue uptake at 72 h was 0.01 ± 0.01 %ID/g.

And the tissue uptake at 120 h [8]?
Its tissue uptake at 120 h is 0.01 ± 0.01 %ID/g.

And the tissue uptake at 1 h (brain, 100 ug, blocked (100 µg GRPR antagonist co-injected), read-out: Brain uptake)?
Its tissue uptake at 1 h is 0.02 ± 0.01 %ID/g.

What about the tissue uptake at 1 h [9] of the same compound?
Its tissue uptake at 1 h is 0.02 %ID/g.

What about the tissue uptake at 4 h [9] of the same compound?
Its tissue uptake at 4 h is 0.01 %ID/g.

And the tissue uptake at 1 h (fat, 100 ug, blocked (100 µg GRPR antagonist co-injected), read-out: Fat uptake)?
The tissue uptake at 1 h was 0.09 ± 0.04 %ID/g.

What about the tissue uptake at 1 h [10] of the same compound?
The tissue uptake at 1 h was 0.04 ± 0.02 %ID/g.

And the tissue uptake at 4 h [10]?
The tissue uptake at 4 h was 0.01 ± 0.01 %ID/g.

And the tissue uptake at 24 h [10]?
The tissue uptake at 24 h was 0.01 %ID/g.

And the tissue uptake at 1 h (heart, 100 ug, blocked (100 µg GRPR antagonist co-injected), read-out: Heart uptake)?
The tissue uptake at 1 h was 0.23 ± 0.05 %ID/g.

What about the tissue uptake at 1 h [11] of the same compound?
Its tissue uptake at 1 h is 0.13 ± 0.05 %ID/g.

What about the tissue uptake at 4 h [11] of the same compound?
The tissue uptake at 4 h was 0.03 ± 0.01 %ID/g.

And the tissue uptake at 24 h [11]?
Its tissue uptake at 24 h is 0.02 ± 0.01 %ID/g.

And the tissue uptake at 72 h (heart, 72 h pi, n = 5, read-out: Heart uptake)?
Its tissue uptake at 72 h is 0.01 %ID/g.
